This passage reports EC50, IC50 and outcome results from PubChem BioAssay AID179 (DTP/NCI, 2004).

The subject of the test is CEM cells HIV-1 protection, formazan growth assay. Kind of test: NCI AIDS Antiviral Assay. The settings on record: for IC50: measured here: growth of uninfected CEM cells. In a few lines:
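Protection of CEM cells against HIV-1 measured as cell growth via soluble formazan read-out, with five concentrations tested on both infected and uninfected cells; failure to protect may reflect toxicity.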

The structures appear in SMILES notation. Calls of active or inactive are those of the source.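 How the source made its calls: active means compounds giving half or more protection of infected cells from virus-caused growth loss, again on retest; inactive means the rest.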

Usually EC50 stands for the concentration at which the effect is half-maximal. For orientation: IC50 means the concentration that gives 50% inhibition. Low readings indicate greater potency, high ones weaker potency. As to `O=C(O)c1ccccc1/C=N\NC1=NCCN1`, the EC50 was 69.2 µM and the IC50 worked out at 115 µM.
For the molecule `Cc1ccc(Nc2ncnc3sc(SCc4ccccc4)nc23)cc1`, the result was inactive.
As for `O=C1NC(=O)c2ccc([N+](=O)[O-])c3cccc1c23`, the EC50 was more than 0.871 µM and the concentration for half-maximal inhibition (IC50) amounted to 0.1 µM.
The corresponding values for `COc1ccc(CCN2C(=O)CCC3=C2CCCC3=O)cc1OC` are more than 200 µM and more than 200 µM.
The corresponding values for `N#C/C(=C\c1ccccc1)C(NO)Nc1ccccc1` (stereo not given) are more than 135 µM and 64.6 µM.
`CCc1c(C)[nH]c2c1/C(=N/N=C1\CCCc3[nH]c(C)c(CC)c31)CCC2`: the outcome was inactive.
On to `NS(=O)(=O)c1cc[c]([Sb]=[O])cc1`, for which the EC50 was more than 200 µM and the half-inhibitory concentration (IC50) came out at 61.7 µM.
The corresponding values for `COc1ccc(C(C)c2cc3c(cc2OC)OCO3)cc1` (stereo not given) are more than 66.1 µM and 0.427 µM.
In the same order, the values of `O=C(O)c1ccccc1SCc1cc(O)ccc1O` are more than 200 µM and 30.9 µM.
In the same order, the values of `CN(C(=O)c1cccs1)C(=S)N1CCN(c2ccccn2)CC1` are more than 195 µM and 110 µM.
Regarding `CN(C)C1(C(=O)O)CC1`, the EC50 was more than 200 µM and the IC50 was more than 200 µM.
Consider `O=C1C(c2ccccc2)=C(c2ccccc2)C(c2ccc(-c3ccc(C4=C(c5ccccc5)C(=O)C(c5ccccc5)=C4c4ccccc4)cc3)cc2)=C1c1ccccc1`, for which the EC50 is more than 3.55 µM and the IC50 was more than 3.55 µM.
Regarding `Cc1cc(O)ccc1C1(c2ccc(F)cc2)OC(=O)c2ccccc21` (stereo not given), the result was inactive.
Still for that read-out and setting: the same measure for `COC(=O)/C(C=O)=C/Sc1ccccc1`: “inactive”.
As for `[O]=[Sb]([OH])([OH])[c]1ccc(Br)cc1`, the EC50 is more than 200 µM and the IC50 was determined as 35.5 µM.
On to `O=S(=O)(N/N=C/c1ccc(Cl)cc1Cl)c1ccccc1`, for which the outcome was inactive.
Turning to `O=C(O)\C=C/C=C/C=C/C=C/C(=O)O`, the EC50 was 126 µM and the IC50 was found to be 135 µM.
Consider `CC(C)C1CN1CC(O)Cn1ccnc1[N+](=O)[O-]` (stereo not given), for which the EC50 was more than 200 µM and the half-maximal inhibitory concentration (IC50) was more than 200 µM.
Consider `Cc1cc(S(=O)(=O)O)c(NC(=O)C(=O)C2C=CCS2(=O)=O)cc1Cl` (stereo not given), for which the EC50 is more than 631 µM and the concentration for half-maximal inhibition (IC50) is more than 631 µM.
`C#C[C@]1(O)CCCC2=CC(=O)CC[C@@]21C`: the result was inactive.
As for `CC(C)(C)[Si](C)(C)OC[C@H]1O[C@@H](n2ccc(=O)[nH]c2=O)[C@H](O[Si](C)(C)C(C)(C)C)[C@]1(O)[C@H](N=[N+]=[N-])C(N)=O`, the EC50 was more than 200 µM and the IC50 came out at 6.03 µM.
`N#C/C(=C/n1c(=S)[nH]c2ccccc21)C(N)=O`: the EC50 is more than 200 µM and the IC50 was more than 200 µM.
With `CC(C)Cn1c(N)c(N=O)c(=O)n(C)c1=O`, the EC50 is more than 200 µM and the IC50 is more than 200 µM.
Regarding `COc1cc(/C=C2/SC(c3ccccc3)N(c3ccc(Cl)cc3)C2=O)cc(OC)c1OC` (stereo not given), the outcome was inactive.
As for `O=S1(=O)CS(=O)(=O)CS(=O)(=O)C1`, the EC50 is more than 200 µM and the IC50 is 89.1 µM.
In the same order, the values of `O=C(O)CN(CC(=O)O)Cc1cc(C#Cc2ccc(C#Cc3ccccc3)cc2)cc(CN(CC(=O)O)CC(=O)O)n1` are more than 77.6 µM and 19.5 µM.
As for `Cc1ccc(NC(=O)CC/C(CC(=O)c2ccc(Cl)cc2)=N\NC(=O)C(=O)NN)cc1C`, the EC50 was more than 8.32 µM and the IC50 was more than 8.32 µM.
Take `COc1cccc(NC(=S)Nn2c(C)nc3ccccc3c2=O)c1`: the EC50 is more than 105 µM and the IC50 is more than 105 µM.
As for `Cn1c2c(c3ccccc31)CCN(CCCN1CCN(c3cccc(Cl)c3)CC1)C2=O`, the EC50 is more than 16.6 µM and the IC50 is more than 16.6 µM.
Take `CN1c2ccccc2C(=O)NC12CCN(CC1COc3ccccc3O1)CC2` (stereo not given): the EC50 was more than 200 µM and the IC50 was determined as 89.1 µM.
The corresponding values for `C=C[C@@H]1c2ccccc2C=C[C@]1(CCC1(C)OCCO1)C1=NC(COC)[C@H](c2ccccc2)O1` (stereo not given in full) are more than 8.13 µM and more than 8.13 µM.
The corresponding values for `CCO/C=N\c1c(C#N)c(-c2ccc(Cl)cc2)cn1-c1ccc(C)cc1` are more than 200 µM and 25.1 µM.
The corresponding values for `C1N2CN3CN1CN(C2)C3` are more than 200 µM and 151 µM.
With `CC(=O)OCC(OC(C)=O)C(OC(C)=O)C(OC(C)=O)C(=O)CNn1c(-c2ccccc2Cl)nc2ccccc2c1=O` (stereo not given), the result was inactive.
For the molecule `CC1(C)N=C(C(N)=O)c2ncn(-c3ccccc3)c2N1`, the EC50 is more than 200 µM and the IC50 was more than 200 µM.
As for `O=C(Nc1ccccc1)C(=O)C(C(=O)c1ccccc1)C(c1ccccc1)c1ccccc1` (stereo not given), the EC50 was more than 200 µM and the IC50 is 37.2 µM.
In the same order, the values of `C=CCC(CCC(CC=C)C(=O)O)C(=O)O` (stereo not given) are more than 1100 µM and more than 1100 µM.
In the same order, the values of `CC(C)(C)N1COCO[C@H]2CCC[C@@H]21` are more than 525 µM and 186 µM.
In the case of `C/C(=C\C(=O)c1ccc(Sc2ccccc2)cc1)c1ccc(Sc2ccccc2)cc1`, the EC50 was more than 200 µM and the IC50 was 102 µM.
In the same order, the values of `CN(C)CCn1nc(N)c2nc3cc(C(F)(F)F)ccc3nc21` are more than 100 µM and 63.1 µM.
As to `CC(C)(C)c1cc(CCC(=O)Nc2ccccc2[N+](=O)[O-])cc(NC#N)n1`, the outcome was inactive.
For the molecule `Cc1cc(C)nc(NS(=O)(=O)c2ccc(Nc3c4ccccc4nc4c(C(=O)Nc5ccc(S(N)(=O)=O)cc5)cccc34)cc2)n1`, the EC50 was more than 145 µM and the IC50 was more than 145 µM.
Regarding `COc1ccc(/C=C/C(=O)c2sc(NC(=S)NC(=O)c3ccccc3F)nc2C)cc1OC`, the EC50 is more than 74.1 µM and the IC50 is more than 74.1 µM.
As for `NCCCOCC(=O)O`, the outcome was inactive.
Take `CCOC(=O)c1c(-c2ccccc2)c(C)cn1C`: the EC50 is more than 200 µM and the IC50 is 120 µM.
The corresponding values for `CCOC(=O)C(=C/C=C/N[C@@H](Cc1c[nH]c2ccccc12)C(N)=O)C(=O)OCC` are more than 18.2 µM and more than 18.2 µM.
As to `COC(=O)CCC1=C(C)c2cc3[n-]c(cc4nc(cc5[n-]c(cc1n2)c(CCC(=O)OC)c5C)C(C(C)=O)=C4C)c(C(C)=O)c3C.[Ni+2]`, the EC50 is more than 100 µM and the IC50 was more than 100 µM.
As to `Cc1ccc(SCC(O)=C2C(=O)CCCC2=O)cc1`, the EC50 is more than 245 µM and the IC50 stood at 158 µM.
In the same order, the values of `O=C1/C(=C\c2cccc(Oc3ccccc3)c2)S(=O)(=O)C(c2ccccc2)N1c1cccc(Cl)c1` (stereo not given) are more than 200 µM and 12.9 µM.
`Cn1c2c(c3ccccc31)C1CCCCCCC1C1C(=O)OC(=O)C21` (stereo not given): the result was inactive.
In the case of `CC(=O)Nc1cc2cc(N=CN(C)C)ccc2oc1=O`, the EC50 was more than 263 µM and the IC50 turned out to be 148 µM.
The corresponding values for `Clc1ccc(/C(=C/c2ccccc2)Cn2ccnc2)cc1` are more than 200 µM and 35.5 µM.
Consider `COc1ccc(O)c(/C=N/NC(=S)N2CCCCC2)c1`, for which the EC50 is more than 200 µM and the IC50 amounted to 8.13 µM.
The corresponding values for `CCCOC(=O)c1cc(OC(C)=O)c2c(OC)ccc(OC)c2c1` are more than 40.7 µM and more than 40.7 µM.
Consider `COc1ccc(C2=Nn3c(nc4sc5c(c4c3=O)CCCC5)SC2)cc1`, for which the EC50 is more than 200 µM and the IC50 was more than 200 µM.
`O=C(O)C#CC(=O)O`: the EC50 was more than 1580 µM and the IC50 was more than 1580 µM.
`COc1cc(/C=C/C(=O)CC(=O)/C=C/c2ccc(O)c(OC)c2)ccc1O` (tested in a mixture with another compound): the EC50 was more than 200 µM and the IC50 came out at 3.31 µM.
In the same order, the values of `COc1cc(-c2oc3ccccc3c(=O)c2O)cc(OC)c1OC` are more than 200 µM and 79.4 µM.
In the same order, the values of `[O]=[Sb][c]1ccc(Br)cc1` are more than 200 µM and 4.57 µM.
In the same order, the values of `N=C1N(c2ccccc2)C(=O)CC(=O)N1c1ccccc1` are more than 200 µM and 53.7 µM.
For the molecule `CC1=N/C(=C\c2ccc(C)cc2)C(=O)O1`, the EC50 is more than 129 µM, the result was inactive and the concentration for half-maximal inhibition (IC50) was more than 129 µM.
As to `CCOC(=O)NN(C(=O)OCC)c1ccc(N=Nc2ccc(OC)cc2)n1C`, the EC50 is more than 200 µM and the IC50 is 26.9 µM.
The corresponding values for `CN(C(=O)c1ccco1)C(=S)N1CCN(c2ccccc2)CC1` are more than 110 µM and 30.2 µM.
For the molecule `CCCC1C[C@H]2CCCCN2[C@H]2CCCN12` (stereo not given in full), the EC50 was more than 1120 µM and the IC50 was determined as 550 µM.
Consider `COc1cccc(C2c3cc4c(cc3OC(N3CCCCC3)C2C)OCO4)c1O` (stereo not given), for which the EC50 was more than 200 µM and the IC50 came to 3.02 µM.
In the same order, the values of `C#CCN(N=O)C(=O)NCCCC(NC(C)=O)C(=O)NCc1ccccc1` (stereo not given) are more than 676 µM and 51.3 µM.
For the molecule `O=c1c(-c2ccccc2)c[nH]c2cc([N+](=O)[O-])c(/C(Cl)=C/c3ccccc3)cc12`, the result was inactive.
For the molecule `COc1ccc(C2=C/C(=C3/C(=O)C=C(C)OC3=O)SS2)cc1`, the EC50 is more than 100 µM and the IC50 was more than 100 µM.
For the molecule `Cc1ccc(N=NC(C(=O)c2ccccc2)C(=O)c2ccccc2)cc1`, the EC50 is more than 39.8 µM and the IC50 was found to be 20 µM.
In the same order, the values of `O=C(CC(=O)c1ccccc1NC1=Cc2ccccc2C(=O)C1=O)C(=O)NC1=C(Cl)C(=O)c2ccccc2C1=O` are more than 18.2 µM and 3.24 µM.
In the same order, the values of `Cn1nc(S(N)(=O)=O)s/c1=N/C(N)=S` are more than 200 µM and more than 200 µM.
On to `COC1OC2COC(c3ccccc3)OC2C2OC(=S)OC12` (stereo not given), for which the outcome was inactive.
On to `COC(=O)c1c(C(=O)OC)c2ccccn2c1-c1cc(C)cc2c1C(=O)C=CC2=O`, for which the EC50 is more than 200 µM and the IC50 was determined as 0.468 µM.
`CCOC(=O)C1=NN(c2ccccc2)C(=O)/C1=C\n1ccc(=O)[nH]c1=S`: the outcome was inactive.
